Test results reported in EP2592085B1, “Thiazolo[3,2-a][1,3]diazepine derivatives and pharmaceutical compositions containing the same as anticonvulsant agents and method for their preparation” (King Saud University, priority 2011, dated 2013).

Columns and labels:
[1] = test system: Swiss albino mice; test: animal or person; assay type: in vivo; conditions: for ED50: Mus musculus, ip, PTZ, median effective dose, log-probit method; for % Protection: PTZ 100 mg/kg i.p. given 30 min after compound i.p., dose SGH-35 200 mg/kg (0.78 mmol/kg), SGH-40 100 mg/kg (0.38 mmol/kg), 4 animals; for PI: male, Swiss albino, mouse, in vivo
Procedure: (§1) Adult male Swiss albino mice (22-28 g), approximately 10-week old, were used to conduct the anticonvulsant evaluation. They were housed in cages and kept at a temperature of 20 ± 2°C and a relative humidity of 55 ± 5% with a light-dark cycle of 12 h and fed with standard diet and water ad libitum. Compounds of the formula 1 have been dissolved in dimethylsulfoxide and administered at dose levels of 25, 50, 100 and 200 mgl/kg intraperitoneal (i.p.). Sodium valproate was freshly dissolved in 0.9 % NaCl and used at dose level of 200 mg/kg (1.38 mmol/kg) i.p., 30 min after the test compounds as a positive control. A control group of mice was included and received intraperitoneal (i.p.) injections of the test compounds' vehicle. […] Picrotoxin (pic) was freshly dissolved in 1 ml 0.1N warmed HCl and the final volume was made up with 0.9 % NaCl. It has been used at dose level of 10 mg/kg i.p. and was given 30 min after the test compounds.
(§2) The anticonvulsant activity of compounds of the formula 1 in mice was measured using Pentylenetetrazole (PTZ) seizure threshold test (White, H.S. et al. In Antiepileptic Drugs, 4th ed.; L,evy, R.H. et al., Eds, Raven: New York, 1995, pp 99-121). The active compounds of the formula 1 were further tested against maximal electroshock seizure (MES), and picrotoxin induced clonic convulsions, to explore the involvement of GABA-ergic receptors in their anticonvulsant activity. The effect of compounds of the formula 1 on motor performance was studied by chimney test (Dauge, V. et al. Neuropsychopharmacology 2001, 25, 690-98). Median effective (ED50), and median sedative (TD50) were calculated.
Pentylenetetrazole (PTZ) seizure threshold test is used to evaluate the potential anticonvulsant activity of compounds of the formula 1 (White, H.S. Et al. In Antiepileptic Drugs, 4th ed.; Levy, R.H. et al., Eds, Raven: New York, 1995, pp 99-121). Each compound was tested in 4 mice groups (Swiss albino mice, 25 g body weight) for each dose level (25, 50, 100 and 200 mg/kg) and was given i.p. 30 min later, animals were received PTZ (100 mg./kg, i.p.) and observed for 30 min. A single 5 seconds episode of clonic spasms was taken as a threshold seizure. SGH-35 and SGH-40 produced 100% protection against PTZ-induced seizures, Table 1. Table 1: ED50, TD50, PI, LD50 and TI for SGH-35 and SGH-40.
(§3) In each of the chemical and the electrical methods described above, Swiss albino mice were divided into 4 groups (N = 4 animals). Each group was injected (i.p.) with one of the four selected doses that have proven to obtain a variable percentage of protection […] before the convulsants. The effective dose 50 (ED50) i.e. the dose that protected half of the animals was then calculated using the log-probit method (White, H.S. et al. In Antiepileptic Drugs, 4th ed.; Levy, R.H.et al., Eds, Raven: New York, 1995, pp 99-121).

[2] = test system: Swiss albino mice; test: Maximal electroshock (MES) seizure test; assay type: in vivo; conditions: for % Protection: MES applied 30 min after compound i.p., dose SGH-35 200 mg/kg (0.78 mmol/kg), SGH-40 100 mg/kg (0.38 mmol/kg), 4 animals; for ED50: Mus musculus, ip, MES, median effective dose, log-probit method; for PI: Protective index = TD50/ED50, MES ED50
Procedure: as §2
The maximal electroshock (MES) seizure is one of the electrical test used to evaluate anticonvulsant activity (White, H.S. et al. In Antiepileptic Drugs, 4th ed.; Levy, R.H. et al., Eds, Raven New York, 1995, pp 99-121). […] Swiss albino mice (25 g body weight) were injected with 25, 50, 100 and 200 mg/kg of SGH-35 and SGH-40 i.p. 30 min later, mice were restrained by hand and subjected to electric shock through their ears, and released immediately following electrical stimulation, to permit observation of the maximal seizure. The maximal seizure typically consists of a short period of initial tonic flexioni and a prolonged period of tonic extension (especially the hind limb). Protection was defined as complete absence of hind limb tonic extension (Table 1).
as §3

[3] = test system: Swiss albino mice; test: animal or person; assay type: in vivo; conditions: for ED50: Mus musculus, ip; for % Protection: Picrotoxin (8 mg/kg, IP) given 30 min after compound i.p., dose SGH-35 200 mg/kg (0.78 mmol/kg), SGH-40 100 mg/kg (0.38 mmol/kg), 4 animals; for PI: Protective index = TD50/ED50, Pic ED50
Procedure: as §1, §2
Swiss albino mice (25 g body weight) were injected with 25, 50, 100 and 200 mg/kg of SGH-35 and SGH-40 (4 mice, i.p.). 30 min later, animals were injected sc with Pic (10 mg/kg) and observed for 30 min and the percentage protection against convulsive seizures for each compound was calculated (Table I).
as §3

[4] = Minimal neurotoxicity (chimney test), motor performance; assay type: in vivo, mice; conditions: Swiss albino, mouse, in vivo, ip; median sedative dose; chimney test at 15 and 25 min after i.p. administration
Procedure: as §2
(§4) The effect of SGH-35 and SGH-40 on motor performance was studied by chimney test (Dauge, V. et al. Neuropsychopharmacology 2001, 25, 690-98). At 15 and 25 min after i.p. administration of compounds SGH-35 and SGH-40, the inability of mice to climb up backwards in a glass tube of 25 cm length and 3 cm inner diameter within 30 sec was recorded and taken as a measure of neurological deficits. Normal mice climb up in 5-10 sec. The dose that impaired the motor coordination in 50% of the animals tested was labeled as the median toxin dose 50 (TD50).

[5] = test system: Swiss albino mice; test: as above; assay type: in vivo; conditions: median sedative dose; chimney test at 15 and 25 min after i.p. administration
Procedure: as §2, §4

[6] = Acute toxicity determination (LD50); assay type: in vivo; conditions: Albino Swiss, mouse, in vivo, ip, mice observed for 72 hours
Procedure: (§5) The acute toxicity determination (LD50) for compounds of formula 1 was performed. Compounds were given intraperitoneally (i.p.) in doses ranging from 0.1-5 mmol/kg. […] All behavioral changes and death during the observation periods were recorded. The percentage of death at each dose level was then calculated, and the LD50 values were obtained (Ghosh, M., Fundamentals of Experimental Pharmacology, Scientific Book Agency, Calcutta. 1984, pp 153-158, 187-189). The protective index (PI) and therapeutic index (TI) of each compound were calculated.
(§6) Initially the approximate LD100 of each test compound was determined. Albino Swiss mice (25 g body weight) were then divided into 4 groups (6 mice each). Each group was then injected with one of 4 selected doses the highest being the LD100 dose. The animals were then observed closely for 4 hours and then occasionally for 72 hours. The percentage of death in each group was then calculated. The LD50 doses were then calculated using the Profit method (Ghosh; M., Fundamentals of Experimental Pharmacology, Scientific Book Agency, Calcutta. 1984, pp 153-158, 187-189).
(§7) The protective index (PI) - i.e. the value that indicates the margin of safety and tolerance of the test compound was calculated by the formula: Protective index (PI) = TD50/ED50. The Therapeutic Index was calculated by the formula: Therepeutic index (TI) = LD50/ED50 (Löscher, W. et al. Epilepsy Res. 1991, 9, 1-10).

[7] = test system: Albino Swiss mice; test: Acute toxicity determination (LD50); assay type: in vivo; conditions: Therapeutic index = LD50/ED50 (values match the PTZ ED50)
Procedure: as §5, §6, §7

In the case of `CCOC(=O)C1=C(C)N2CCCC(=O)N=C2S1` [SGH-35, Ethyl 3-methyl-8-oxo-5,6,7,8-tetrahydro-thiarolo[3,2-a][1,3]diazepinie-2-carboxylate], the ED50 [1] is reported as 127 ± 9.3 mg/kg, the “% Protection” value [1] is reported as 100% and the PI [1] is reported as 1.57. The “% Protection” value [2] was 100%, the ED50 [2] was 90 ± 5.7 mg/kg and the PI [2] was 2.22. The ED50 [3] was 148 ± 11.1 mg/kg, the “% Protection” value [3] was 100% and the PI [3] was 1.35. For the same molecule, the TD50 [4] was 200 ± 12.3 mg/kg, the TD50 [5] was 200 ± 12.3 mg/kg and the LD50 at 72 h [6] was 670 mg/kg. It also gave a TI [7] of 5.28.

For `CC1=C(Br)SC2=NC(=O)CCCN21` [SGH-40, 2-Bromo-3-methyl-6,7-dihydro-thiazolo[3,2-a][1,3]diazepin-8(5H)-one], the ED50 [1] was 112 ± 3.9 mg/kg, the “% Protection” value [1] was 100% and the PI [1] was 1.51. For the same molecule, the “% Protection” value [2] was 100%, the ED50 [2] was 78 ± 4.1 mg/kg and the PI [2] was 2.17. For the same molecule, the ED50 [3] was 129 ± 6.1 mg/kg, the “% Protection” value [3] was 100% and the PI [3] was 1.31. For the same molecule, the TD50 [4] was 170 ± 6.9 mg/kg, the TD50 [5] was 170 ± 6.9 mg/kg and the LD50 at 72 h [6] was 640 mg/kg. It also gave a TI [7] of 5.71.
